Results published in patent publication US20210292265A1, “CHALCONES AND DERIVATIVES FOR USE IN MEDICAMENTS AND NUTRACEUTICALS” (HLXTH B.V., priority 2018, published 2021).

Legend:
[1] = system: inflammasome induced IL-1β production; assay: IL-1β secretion (ELISA) in LPS/ATP stimulated, PMA differentiated THP-1 cells; type: cell-based; settings: for IC50: Homo sapiens, LPS (2 ng/ml, 4h) plus ATP (5 mM, 5 min), 1 hour pre-treatment, read-out: IC50 of inhibition of IL-1β secretion
Procedure: (§1) Evaluation of the effect of test compounds on inflammasome induced IL-1β or IL-18 generation and mTOR or caspase-1 activity was performed using PMA-differentiated THP-1 cells stimulated with LPS (2 ng/ml, 4h (LPS (sigma, cat #L3012)) plus ATP (5 mM, 5 min. (Sigma, cat #A1852)). PMA-differentiated THP-1 cells untreated with LPS/ATP were used as control. PMA (phorbol 12-myristate 13-acetate) stimulation was done by adding 150 nM PMA to the cell culture for 24 hours. followed by 24 hours of incubation in culture medium and removal of non-adherent cells.
(§2) The supernatant was collected immediately after experimental procedures for measurement of IL-1β ELISA (R&D Systems, cat #DY201) or IL-18 ELISA (R&D Systems, cat #7620) levels.
(§3) PMA-differentiated THP-1 cells, 1.5×10^5 cells/well, 96-well format
(§4) 1. Pre-treatment for 1 hour with experimental compounds. 2. LPS stimulation (2 ng/mL) for 4h of all conditions except unstimulated (LPS/ATP unstimulated) cells 3. ATP (5 mM) stimulation for 5 minutes of all conditions except unstimulated (LPS/ATP unstimulated) cells 4. Material collection: Supernatant and cell lysates (snap frozen, stored at −80° C.)

[2] = system: inflammasome induced IL-18 production; assay: IL-18 secretion (ELISA) in LPS/ATP stimulated, PMA differentiated THP-1 cells; type: cell-based; settings: dose dependent
Procedure: as §1, §2, §3, §4

mTOR = target: T1, mTOR (Homo sapiens, UniProt P42345); assay: mTOR activity by phospho p70 S6K (Thr389) ELISA in PMA differentiated THP-1 cells; type: cell-based; settings: LPS/ATP stimulated and PMA differentiated THP-1 cells; read-out: IC50 of mTOR inhibition (phospho p70 S6K)
T1 construct: PMA-differentiated THP-1 cells, 1.5×10^5 cells/well, 96-well format; endogenous in cells; host or cells: PMA-differentiated THP-1 cells
Procedure: as §1
(§5) The cell lysates were collected accordingly the manufacturer's instructions for analysis of phospho p70 S6K (Thr389) (eBioscience, cat #85-86052) levels by ELISA, to determine the mTOR activity or to determine caspase-1 (R&D Systems cat #AF6215) levels by Western blot. As secondary antibody for the Western blot a HRP-conjugated anti-IG antibody (R&D Systems cat #HAF017) was used and immunoreactive bands were visualized by the Enhanced Chemiluminescence method (Thermo Scientific, Rockford, Ill.). All assays were performed accordingly to the respective manufacturers instructions.
as §3
1. Pre-treatment for 1 hour with experimental compounds. 2. LPS stimulation (2 ng/mL) for 4h of all conditions except unstimulated (LPS/ATP unstimulated) cells 3. […]

[3] = system: inflammasome induced caspase-1 production; assay: Caspase-1 levels by Western blot in LPS/ATP stimulated, PMA differentiated THP-1 cells; type: cell-based
Procedure: as §1, §5
1. Pre-treatment for 1 hour with experimental compounds. 2. […]
LPS/ATP stimulated, PMA differentiated THP-1 cells were incubated with a compound of formula I and caspase-I formation was analyzed and compared to a control without the compound.

MCAO rats = settings: pretreatment once a day for 7 days, 2 h MCAO, 22 h reperfusion; cited from earlier work
[4] = system: 1K/DOCA/salt-treated mice; settings: cited from earlier work
[5] = system: myocardial ischemia reperfusion injury (MI/RI) rats; settings: I/R rats, 2.5, 5 and 10 mg/kg, 30 min occlusion, 2 h reperfusion; cited from earlier work

## O=C(/C=C/c1ccccc1O)c1ccc(O)cc1O [2,2′,4′-trihydroxychalcone]
[1]
  IC50: 6.1 µM
[2]
  effect on secretion of IL-18: inhibits the secretion of IL-18
mTOR
  IC50: 98.8 µM
[3]
  effect on caspase-1 production: inhibits caspase-1 production

## O=C(/C=C/c1ccc(O)cc1)c1ccc(O)cc1O [Isoliquiritigenin]
[1]
  IC50: 11.9 µM
mTOR
  IC50: 174 µM
MCAO rats
  cerebral infarct volume and edema: significantly reduced

## CC(C)(O)c1coc(S(=O)(=O)NC(=O)Nc2c3c(cc4c2CCC4)CCC3)c1 [MCC950]
[4]
  effect on hypertension: reversed hypertension

## CO[C@H]1C[C@@H]2CC[C@@H](C)[C@@](O)(O2)C(=O)C(=O)N2CCCC[C@H]2C(=O)O[C@H]([C@H](C)C[C@@H]2CC[C@@H](O)[C@H](OC)C2)CC(=O)[C@H](C)/C=C(\C)[C@@H](O)[C@@H](OC)C(=O)[C@H](C)C[C@H](C)/C=C/C=C/C=C/1C [Rapamycin]
[1]; LPS/ATP stimulated, Rapamycin 25, 50 and 100 nM
  effect on production of IL-1β: no effect

## Oc1ccc(/C=C/c2cc(O)cc(O)c2)cc1 [Resveratrol, resveratrol]
[1]
  IC50: 87.3 µM
[5]
  infarct volume and myocardial fibrosis: significantly reduced
